Data as given in patent US20100216751A1 (priority 2007, published 2010).

Test: Pharmacokinetic evaluation of liquid bevirimat dosage forms, oral gavage, male Cynomolgus monkeys
Settings: male, cynomolgus monkey, in vivo, po; for AUC / Cmax / half-life / Tmax: 200 mg
Experimental: Six male Cynomolgus monkeys having an initial body weight of about 3.5 to about 4.5 kg are allowed 7 days to acclimate to their individual housing units. Monkeys are supplied with water and a commercial diet ad libitum prior to the study initiation. Food is withheld from the monkeys for a minimum of twelve hours before the study and during the study until four hours postdose when food is returned. Water is supplied ad libitum.
Test formulations are administered to the monkeys at time 0 on appropriate days. Test formulations will be dosed orally via oral gavage or intravenously.
Samples are drawn at the frequencies indicated below. Each blood sample (0.5 mL) is collected from the monkey's saphenous vein via a butterfly catheter and placed into a chilled polypropylene tube containing sodium heparin as the anticoagulant. Blood samples are centrifuged at a temperature of 4° C. at a speed of 3,000 rpm for 15 minutes. All samples are maintained chilled throughout processing. Plasma is collected after centrifugation, pipetted into a 2-mL polypropylene microtube, and frozen on dry-ice pending analytical evaluation.

[1] = 50 mg/monkey, Plasma Concentration, PG/glycerin/Vitamin ETPGS/Tween80/Plasdone C15 formulation, AVG
[2] = 50 mg/monkey, Plasma Concentration, PG/glycerin/Vitamin ETPGS/Tween80/Plasdone C15 formulation, individual monkey
[3] = 50 mg/monkey, Plasma Concentration, PG/glycerin/Vitamin ETPGS/ethanol formulation, AVG
[4] = 50 mg/monkey, Plasma Concentration, PG/glycerin/Vitamin ETPGS/ethanol formulation, individual monkey
[5] = 200 mg/monkey, Plasma Concentration, PG/glycerin/Vitamin ETPGS/ethanol formulation, AVG
[6] = 200 mg/monkey, Plasma Concentration, PG/glycerin/Vitamin ETPGS/ethanol formulation, individual monkey

SMILES: C=C(C)[C@@H]1CC[C@]2(C(=O)O)CC[C@]3(C)[C@H](CC[C@@H]4[C@@]5(C)CC[C@H](OC(=O)CC(C)(C)C(=O)O)C(C)(C)[C@@H]5CC[C@]43C)[C@@H]12 [Bevirimat, 3-O-(3′,3′-dimethylsuccinyl)betulinic acid]
- concentration at 1 h (50 mg/monkey, Plasma Concentration, PG/glycerin/Vitamin ETPGS/Tween80/Plasdone C15 formulation, 1.0 hr, AVG): 24800 ng/mL
- concentration at 2 h [1]: 61600 ng/mL
- concentration at 2 h [2]: 52700 ng/mL
- concentration at 4 h [1]: 53600 ng/mL
- concentration at 4 h [2]: 55100 ng/mL
- concentration at 6 h [1]: 32300 ng/mL
- concentration at 6 h [2]: 31500 ng/mL
- concentration at 8 h (50 mg/monkey, Plasma Concentration, PG/glycerin/Vitamin ETPGS/Tween80/Plasdone C15 formulation, 8.0 hr, AVG): 21000 ng/mL
- concentration at 8 h (50 mg/monkey, Plasma Concentration, PG/glycerin/Vitamin ETPGS/Tween80/Plasdone C15 formulation, 8.0 hr, individual monkey): 22300 ng/mL
- concentration at 12 h (50 mg/monkey, Plasma Concentration, PG/glycerin/Vitamin ETPGS/Tween80/Plasdone C15 formulation, 12 hr, AVG): 8160 ng/mL
- concentration at 12 h (50 mg/monkey, Plasma Concentration, PG/glycerin/Vitamin ETPGS/Tween80/Plasdone C15 formulation, 12 hr, individual monkey): 8580 ng/mL
- concentration at 24 h (50 mg/monkey, Plasma Concentration, PG/glycerin/Vitamin ETPGS/Tween80/Plasdone C15 formulation, 24 hr, AVG): 1270 ng/mL
- concentration at 24 h (50 mg/monkey, Plasma Concentration, PG/glycerin/Vitamin ETPGS/Tween80/Plasdone C15 formulation, 24 hr, individual monkey): 1320 ng/mL
- concentration at 48 h (50 mg/monkey, Plasma Concentration, PG/glycerin/Vitamin ETPGS/Tween80/Plasdone C15 formulation, 48 hr, AVG): 336 ng/mL
- concentration at 72 h (50 mg/monkey, Plasma Concentration, PG/glycerin/Vitamin ETPGS/Tween80/Plasdone C15 formulation, 72 hr, individual monkey): 112 ng/mL
- concentration at 0.25 h (50 mg/monkey, Plasma Concentration, PG/glycerin/Vitamin ETPGS/ethanol formulation, 0.25 hr, individual monkey): 78.4 ng/mL
- concentration at 0.5 h (50 mg/monkey, Plasma Concentration, PG/glycerin/Vitamin ETPGS/ethanol formulation, 0.50 hr, AVG): 246 ng/mL
- concentration at 1 h (50 mg/monkey, Plasma Concentration, PG/glycerin/Vitamin ETPGS/ethanol formulation, 1.0 hr, AVG): 36900 ng/mL
- concentration at 2 h [3]: 60100 ng/mL
- concentration at 2 h [4]: 58900 ng/mL
- concentration at 4 hr [3]: 42500 ng/mL
- concentration at 4 h [4]: 34500 ng/mL
- concentration at 6 hr [3]: 23000 ng/mL
- concentration at 8 hr (50 mg/monkey, Plasma Concentration, PG/glycerin/Vitamin ETPGS/ethanol formulation, 8.0 hr, AVG): 14700 ng/mL
- concentration at 12 hr (50 mg/monkey, Plasma Concentration, PG/glycerin/Vitamin ETPGS/ethanol formulation, 12 hr, AVG): 5310 ng/mL
- concentration at 24 hr (50 mg/monkey, Plasma Concentration, PG/glycerin/Vitamin ETPGS/ethanol formulation, 24 hr, AVG): 1340 ng/mL
- concentration at 48 hr (50 mg/monkey, Plasma Concentration, PG/glycerin/Vitamin ETPGS/ethanol formulation, 48 hr, AVG): 149 ng/mL
- AUC (AUCall): 1300 µg·h/mL
- AUC (AUCall, 200 mg/monkey, PG/glycerin/Vitamin ETPGS/ethanol formulation, individual monkey): 1200 µg·h/mL
- Cmax (Cmax, 200 mg/monkey, PG/glycerin/Vitamin ETPGS/ethanol formulation, AVG): 217000 ng/mL
- Cmax (Cmax, 200 mg/monkey, PG/glycerin/Vitamin ETPGS/ethanol formulation, individual monkey): 202000 ng/mL
- AUC (pH 8): 1970 µg·h/mL
- Cmax (pH 8): 225000 ng/mL
- half-life (pH 8): 8.3 h
- AUC (pH 8, AUCall): 1390 µg·h/mL
- Tmax (pH 8, tmax): 2 h
- half-life (t1/2, oral, 200 mg/monkey, PG/glycerin/Vitamin ETPGS/ethanol formulation, AVG): 10.8 h
- half-life (t1/2, oral, 200 mg/monkey, PG/glycerin/Vitamin ETPGS/ethanol formulation, individual monkey): 11.4 h
- Tmax (tmax): 2 h
- concentration at 0.25 hr (200 mg/monkey, Plasma Concentration, PG/glycerin/Vitamin ETPGS/ethanol formulation, 0.25 hr, AVG): 565 ng/mL
- concentration at 0.5 hr (200 mg/monkey, Plasma Concentration, PG/glycerin/Vitamin ETPGS/ethanol formulation, 0.50 hr, AVG): 6020 ng/mL
- concentration at 1 hr (200 mg/monkey, Plasma Concentration, PG/glycerin/Vitamin ETPGS/ethanol formulation, 1.0 hr, AVG): 64800 ng/mL
- concentration at 2 hr [5]: 217000 ng/mL
- concentration at 2 hr [6]: 202000 ng/mL
- concentration at 4 hr [5]: 152000 ng/mL
- concentration at 4 hr [6]: 166000 ng/mL
- concentration at 6 hr [5]: 77800 ng/mL
